According to the NIST ThermoML archive (doi:10.1021/acs.jced.6b00893):
Numbers after ± are expanded uncertainties.

Details: Liquid, Ebulliometric method (Recirculating still)

**Q.** Which “vapor or sublimation pressure” value (373.15 K) does the source give for O [water] here?
**A.** 101.3 ± 0.5 kPa

**Q.** For c1ccccc1 [benzene], which “vapor or sublimation pressure” value (353.25 K) is on record?
**A.** 101.3 ± 0.5 kPa

**Q.** With C=CCO [2-propenol] as the compound, how does the “vapor or sublimation pressure” value (369.75 K) read?
**A.** 101.3 ± 0.5 kPa
